Laboratory results taken from ChEMBL document CHEMBL2429754, “Design of novel focal adhesion kinase inhibitors using 3D-QSAR and molecular docking” (Med Chem Res, 2013).

System: 4T1
Assay: Induction of apoptosis in mouse 4T1 cells after 72 hrs using propidium iodide staining byflow cytometry analysis
Assay type: functional, cell-based
Conditions: 4T1, 72 h

IC50: 100 nM
SMILES: CNC(=O)c1ccccc1Nc1cc(Nc2ccc(N3CCOCC3)cc2OC)ncc1C(F)(F)F
